From patent US20160074466A1, “ANGIOTENSINS FOR TREATMENT OF FIBROSIS” (UNIVERSITY OF SOUTHERN CALIFORNIA, priority 2011, published 2016)

Legend:
NASH mice [1] = assay: Liver weight, NAS and inflammatory cell infiltration in NASH mice (summary statements); assay type: in vivo
From the text: (§1) In this example, NASH was induced in 48 male mice by a single subcutaneous injection of streptozotocin (STZ, Sigma-Aldrich, USA) solution 2 days after birth and feeding with high fat diet (HFD, 57 kcal % fat, cat#HFD32, CLEA Japan, Japan) after 4 weeks of age. The mice were randomized into 6 groups of 8 mice at 7 weeks of age according to Table 1 below. Eight male littermates, fed with normal diet without STZ treatment, were used for the Normal group.
(§2) Group 1 (normal) consisted of eight normal mice fed with a normal diet ad libitum without any treatment. Group 2 (vehicle) consisted of eight NASH mice that were subcutaneously administered vehicle at a volume of 5 mL/kg once daily from 7 to 10 weeks of age. Group 3 (TXA127-30 μg) consisted of eight NASH mice that were subcutaneously administered vehicle supplemented with TXA127 at a dose of 30 μg/5 mL/kg once daily from 7 to 10 weeks of age. Group 4 (TXA127-100 μg) consisted of eight NASH mice that were subcutaneously administered vehicle supplemented with TXA127 at a dose of 100 μg/5 mL/kg once daily from 7 to 10 weeks of age. Group 5 (TXA127-300 μg) consisted of eight NASH mice that were subcutaneously administered vehicle supplemented with TXA127 at a dose of 300 μg/5 mL/kg once daily from 7 to 10 weeks of age. Group 6 (TXA127-1,000 μg) consisted of eight NASH mice that were subcutaneously administered vehicle supplemented with TXA127 at a dose of 1,000 μg/5 mL/kg once daily from 7 to 10 weeks of age. Group 7 consisted of eight NASH mice that were orally administered pure water supplemented with Telmisartan at a dose of 15 mg/10 mL/kg once daily from 8 to 10 weeks of age.
Vehicle (saline) and TXA127 were administered via subcutaneous administration to the mice in a volume of 5 mL/kg body weight. Telmisartan was administered by oral route to the mice in a volume of 10 mL/kg body weight. TXA127 was dissolved in saline, and Telmisartan (MICARDIS®) was purchased from Boehringer Ingelheim GmbH and was dissolved in pure water. TXA127 was administered once daily at the doses of 30, 100, 300 or 1000 μg/kg body weight. […]

Collagen Type 3 mRNA = assay: Quantitative RT-PCR of liver, Collagen Type 3 mRNA; assay type: in vivo, mice
Experimental: (§3) The animals, groups, treatment conditions and time points are the same as for Example 3 above. Livers were harvested from the animals in Example 3 and subjected to the following analysis.
(§4) Total RNA was extracted from liver samples using RNAiso (Takara Bio, Japan) according to the manufacturer's instructions. One μg of RNA was reverse-transcribed using a reaction mixture containing 4.5 mM MgCl2 (Roche, Switzerland), 40 U RNase inhibitor (Toyobo, Japan), 0.5 mM dNTP (Promega, USA), 6.28 μM random hexamer (Promega), 5× first strand buffer (Promega), 6.6 mM dithiothreitol (Invitrogen, USA) and MMLV-RT (Invitrogen) in a final volume of 20 μL. The reaction was carried out for 1 hour at 37° C., followed by 5 minutes at 99° C. Real-time PCR was performed using real-time PCR DICE and SYBR premix Taq (Takara Bio). To calculate the relative mRNA expression level, the expression of each gene was normalized to that of reference gene 36B4 (gene symbol: Rp1p0). Statistical analyses were performed using Bonferroni Multiple Comparison Test on Prism Software 4. P values <0.05 were considered statistically significant. The expression level of Collagen Type I, collagen type 3, α-SMA, TGF-β, CCR2, and TIMP-1 mRNA were assessed.

NASH mice [2] = assay: Liver hydroxyproline content in NASH mice; assay type: in vivo; conditions: normalized by total protein
From the text: as §1, §2
(§5) Vehicle (saline) and TXA127 were administered via subcutaneous administration to the mice in a volume of 5 mL/kg body weight. Telmisartan was administered by oral route to the mice in a volume of 10 mL/kg body weight. TXA127 was dissolved in saline, and Telmisartan (MICARDIS®) was purchased from Boehringer Ingelheim GmbH and was dissolved in pure water. TXA127 was administered once daily at the doses of 30, 100, 300 or 1000 μg/kg body weight. Telmisartan was administered once daily at the dose of 15 mg/kg body weight.
To quantify liver hydroxyproline content, frozen livers (40-60 mg) were minced and defatted in acetone for 30 minutes at room temperature. After centrifugation, the pellets were air-dried and dissolved in 400 μL of 2N NaOH at 65° C. The liver lysates were autoclaved at 121° C. for 20 minutes. The samples were then acid-hydrolyzed with 400 μL of 6N HCl at 121° C. for 20 minutes, and neutralized with 400 μL of 10 mg/mL activated carbon in 4N NaOH. The neutralized samples were buffered with 2.2 M acetic acid/0.48 M citric acid buffer and centrifuged to obtain the supernatant. In order to construct a standard curve of hydroxyproline, serial dilutions of trans-4-hydroxy-L-proline standard (Sigma, USA) were prepared starting at 16 μg/mL. Five hundred μL of the supernatant and standard were added to 500 μL chloramine T in 10% n-propanol/acetate-citrate buffer and incubated for 25 minutes at room temperature. […] After samples were cooled on ice and centrifuged to collect the supernatant, the optical density of each supernatant and standard was measured at 560 nm and the concentration of liver hydroxyproline was calculated form the hydroxyproline standard curve. Protein concentrations of each supernatant were determined using a BCA protein assay kit (Thermo Scientific, USA). […]

[3] = Plasma ALT, AST and ALP levels in STZ/high fat diet NASH mice; assay type: in vivo
From the text: as §1, §2, §5
(§6) Non-fasting whole blood glucose levels were measured in whole blood samples using G Checker (Sanko Junyaku, Japan). For plasma biochemistry, blood was collected in polypropylene tubes with anticoagulant (Novo-Heparin, Mochida Pharmaceutical, Japan) and centrifuged at 1,000×g for 15 minutes at 4° C. The supernatant was collected and stored at −80° C. until use. The plasma levels of ALT, AST, and ALP were measured by FUJI DRI-CHEM 7000 (Fuji Film, Japan).

TGF-β mRNA = assay: Quantitative RT-PCR of liver, TGF-β mRNA; assay type: in vivo, mice
Experimental: as §3, §4

[4] = Non-fasting whole blood glucose in STZ/high fat diet NASH mice; assay type: in vivo
From the text: as §1, §2, §5, §6

α-SMA mRNA = assay: Quantitative RT-PCR of liver, α-SMA mRNA; assay type: in vivo, mice
Experimental: as §3, §4

NASH mice [5] = assay: Sirius red staining of liver sections, fibrosis area, in NASH mice; assay type: in vivo
From the text: as §1, §2, §5
For quantitative analysis of fibrosis areas, bright field images of
Sirius red-stained sections were captured using a digital camera (DFC280, Leica, Germany) around central veins at 200-fold magnification, and the positive areas in 5 fields/section were quantified using ImageJ software (National Institute of Health, USA).

CCR2 mRNA = assay: Quantitative RT-PCR of liver, CCR2 mRNA; assay type: in vivo, mice
Experimental: as §3, §4

Collagen Type 1 mRNA = assay: Quantitative RT-PCR of liver, Collagen Type 1 mRNA; assay type: in vivo, mice
Experimental: as §3, §4

TIMP-1 mRNA = assay: Quantitative RT-PCR of liver, TIMP-1 mRNA; assay type: in vivo, mice
Experimental: as §3, §4

[6] = relative to 36B4, Normal = 1.00, 30 μg/kg SQ QD
[7] = relative to 36B4, Normal = 1.00, 100 μg/kg SQ QD
[8] = relative to 36B4, Normal = 1.00, 300 μg/kg SQ QD
[9] = relative to 36B4, Normal = 1.00, 1000 μg/kg SQ QD
[10] = 30 μg/kg SQ QD, 7-10 wks of age
[11] = 100 μg/kg SQ QD, 7-10 wks of age
[12] = 300 μg/kg SQ QD, 7-10 wks of age
[13] = 1000 μg/kg SQ QD, 7-10 wks of age
[14] = 15 mg/kg oral QD, compared with the Vehicle group
[15] = relative to 36B4, Normal = 1.00, 15 mg/kg oral QD
[16] = 15 mg/kg oral QD, 8-10 wks of age

## TXA127: test substance dissolved in saline, given subcutaneously; not defined in the text, apparently the angiotensin-(1-7) peptide (DRVYIHP; Angiotensin 1-7; UniProt P01019 25-31, looked up)
NASH mice [1]; all doses (30, 100, 300, 1000 μg/kg SQ QD)
  inflammatory cell infiltration: decreased inflammatory cell infiltration
Collagen Type 3 mRNA; [6]
  Collagen Type 3 mRNA expression levels: 3.23±0.54
Collagen Type 3 mRNA; [7]
  Collagen Type 3 mRNA expression levels: 2.82±1.50
Collagen Type 3 mRNA; [8]
  Collagen Type 3 mRNA expression levels: 2.81±0.89
Collagen Type 3 mRNA; [9]
  Collagen Type 3 mRNA expression levels: 2.24±0.68
NASH mice [2]; [10]
  liver hydroxyproline content: 1.22 ± 0.29 µg/mg
NASH mice [2]; [11]
  liver hydroxyproline content: 0.88 ± 0.17 µg/mg
NASH mice [2]; [12]
  liver hydroxyproline content: 1.24 ± 0.51 µg/mg
NASH mice [2]; [13]
  liver hydroxyproline content: 1.34 ± 0.69 µg/mg
[3]; [10]
  plasma ALP levels: 428±61 U/L
  plasma ALT levels: 46±15 U/L
  plasma AST levels: 160±94 U/L
[3]; [11]
  plasma ALP levels: 358±75 U/L
  plasma ALT levels: 89±56 U/L
  plasma AST levels: 352±174 U/L
[3]; [12]
  plasma ALP levels: 472±100 U/L
  plasma ALT levels: 43±17 U/L
  plasma AST levels: 149±50 U/L
[3]; [13]
  plasma ALP levels: 397±96 U/L
  plasma ALT levels: 41±10 U/L
  plasma AST levels: 142±32 U/L
TGF-β mRNA; [6]
  TGF-β mRNA expression levels: 2.35±0.44
TGF-β mRNA; [7]
  TGF-β mRNA expression levels: 1.93±0.44
TGF-β mRNA; [8]
  TGF-β mRNA expression levels: 1.69±0.49
TGF-β mRNA; [9]
  TGF-β mRNA expression levels: 1.70±0.35
[4]; [10]
  non-fasting blood glucose levels in whole blood: 675 ± 103 mg/dL
[4]; [11]
  non-fasting blood glucose levels in whole blood: 590 ± 131 mg/dL
[4]; [12]
  non-fasting blood glucose levels in whole blood: 639 ± 76 mg/dL
[4]; [13]
  non-fasting blood glucose levels in whole blood: 632 ± 92 mg/dL
α-SMA mRNA; [6]
  α-SMA mRNA expression levels: 2.88±1.08
α-SMA mRNA; [7]
  α-SMA mRNA expression levels: 2.65±2.46
α-SMA mRNA; [8]
  α-SMA mRNA expression levels: 2.49±0.98
α-SMA mRNA; [9]
  α-SMA mRNA expression levels: 1.92±0.67
NASH mice [5]; [10]
  percentage of fibrosis area (Sirius red-positive area): 0.88±0.33%
NASH mice [5]; [11]
  percentage of fibrosis area (Sirius red-positive area): 0.55±0.29%
NASH mice [5]; [12]
  percentage of fibrosis area (Sirius red-positive area): 0.54±0.18%
NASH mice [5]; [13]
  percentage of fibrosis area (Sirius red-positive area): 0.51±0.09%
CCR2 mRNA; [6]
  CCR2 mRNA expression levels: 2.60±0.60
CCR2 mRNA; [7]
  CCR2 mRNA expression levels: 3.26±2.01
CCR2 mRNA; [8]
  CCR2 mRNA expression levels: 2.82±0.88
CCR2 mRNA; [9]
  CCR2 mRNA expression levels: 3.10±1.55
Collagen Type 1 mRNA; [6]
  Collagen Type 1 mRNA expression levels: 4.48±0.91
Collagen Type 1 mRNA; [7]
  Collagen Type 1 mRNA expression levels: 3.37±1.58
Collagen Type 1 mRNA; [8]
  Collagen Type 1 mRNA expression levels: 3.06±1.12
Collagen Type 1 mRNA; [9]
  Collagen Type 1 mRNA expression levels: 2.77±0.77
TIMP-1 mRNA; [6]
  TIMP-1 mRNA expression levels: 6.74±1.93
TIMP-1 mRNA; [7]
  TIMP-1 mRNA expression levels: 9.80±8.93
TIMP-1 mRNA; [8]
  TIMP-1 mRNA expression levels: 7.54±3.05
TIMP-1 mRNA; [9]
  TIMP-1 mRNA expression levels: 8.54±6.41

## CCCc1nc2c(C)cc(-c3nc4ccccc4n3C)cc2n1Cc1ccc(-c2ccccc2C(=O)O)cc1 [Telmisartan, reference compound]
NASH mice [1]; [14]
  NAS: significantly decreased
  liver weight: significantly decreased
Collagen Type 3 mRNA; [15]
  Collagen Type 3 mRNA expression levels: 2.09±0.50
NASH mice [2]; [16]
  liver hydroxyproline content: 1.46 ± 0.69 µg/mg
[3]; [16]
  plasma ALP levels: 605±130 U/L
  plasma ALT levels: 41±10 U/L
  plasma AST levels: 232±141 U/L
TGF-β mRNA; [15]
  TGF-β mRNA expression levels: 1.58±0.23
[4]; 15 mg/kg oral QD, 8-10 wks of age, detection limit 900 mg/dL
  non-fasting blood glucose levels in whole blood: 900 ± 0 mg/dL
α-SMA mRNA; [15]
  α-SMA mRNA expression levels: 2.07±0.87
NASH mice [5]; [16]
  percentage of fibrosis area (Sirius red-positive area): 0.44±0.12%
CCR2 mRNA; [15]
  CCR2 mRNA expression levels: 1.94±0.37
Collagen Type 1 mRNA; [15]
  Collagen Type 1 mRNA expression levels: 3.14±0.59
TIMP-1 mRNA; [15]
  TIMP-1 mRNA expression levels: 4.22±1.52
